The record followed here is US8735406B2, “8-oxodihydropurine derivative” (Dainippon Sumitomo Pharma Co., Ltd., priority 2009, dated 2014).

This experiment concerns the target T1, FAAH (Rattus norvegicus, UniProt P97612).
T1 construct: Preparation of Rat Brain Membranes Preparations (FAAH Enzyme Solution); from tissue; host or cells: rat cerebrum (brain membrane preparation)
T1 sequence (P97612 1-579): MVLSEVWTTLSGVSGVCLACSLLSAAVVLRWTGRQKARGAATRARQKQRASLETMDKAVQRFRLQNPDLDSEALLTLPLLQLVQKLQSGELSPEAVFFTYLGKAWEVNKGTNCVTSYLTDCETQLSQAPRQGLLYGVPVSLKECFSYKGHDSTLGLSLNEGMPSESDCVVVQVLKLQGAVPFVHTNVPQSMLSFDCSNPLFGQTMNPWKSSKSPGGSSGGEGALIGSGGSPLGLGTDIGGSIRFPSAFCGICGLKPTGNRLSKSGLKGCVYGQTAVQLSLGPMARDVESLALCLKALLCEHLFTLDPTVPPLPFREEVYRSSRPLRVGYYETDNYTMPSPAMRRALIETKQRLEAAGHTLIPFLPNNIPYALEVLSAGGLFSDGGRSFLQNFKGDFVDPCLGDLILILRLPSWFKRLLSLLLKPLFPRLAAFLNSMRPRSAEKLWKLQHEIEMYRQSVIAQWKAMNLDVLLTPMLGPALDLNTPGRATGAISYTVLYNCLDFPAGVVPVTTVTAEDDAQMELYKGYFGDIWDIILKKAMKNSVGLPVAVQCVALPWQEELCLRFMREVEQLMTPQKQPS
The experiment can be described thus: Determination of FAAH inhibitory activity in rat (rat brain membrane preparations, [3H]-anandamide hydrolysis). Type of experiment: biochemical. The settings on record: for inhibition at 0.1 µM: read-out: FAAH Inhibition, Inhibition Rate at 100 nM; for IC50: test substance 0.1 nM to 1 μM. The method, then:
Determination of FAAH Inhibitory Activity in Rat
The preparation of rat brain membranes preparations and the determination of FAAH inhibitory activity were carried out according to the Jonsson et al. method [Br. J. Pharmacol., 133, 1263 (2001)].
(1) Preparation of Rat Brain Membranes Preparations (FAAH Enzyme Solution)
The cerebrum was extracted from rats and was freeze-stored at −80° C. To the frozen cerebrum was added 4° C. enzyme homogenization buffer (20 mM HEPES-buffer pH 7.0, 1 mM MgCl2) and the mixture was homogenized using a homogenizer in ice and the homogenates were centrifuged (36,000×g for 20 minutes). After repeating operations of homogenization and centrifugation, the tissue pellets were re-suspended with 4° C. enzyme homogenization buffer. The re-suspensions were incubated at 37° C. for 15 minutes and were centrifuged (36,000×g for 20 minutes), and the resulting tissue membranes were then re-suspended with enzyme solution preparation buffer (50 mM Tris-HCl buffer pH 7.4, 1 mM EDTA, 3 mM MgCl2). The protein concentration in the resulting membrane preparations were determined according to a colorimetry method (BCA Protein Assay: Pierce Inc.) and the preparations were freeze-stored at −80° C. until used for assay.
(2) Screening of Substances for Inhibiting FAAH Activity
To the above membrane preparations (final concentration 100 μg/mL) were added a solution of test substances in DMSO (final concentration in DMSO 1%) and an assay buffer (for final preparation; 22 mM Tris-HCl (pH 7.6), 1.4 mM EDTA, 1.5% BSA, 0.6 mM MgCl2) and the resulting mixtures were preincubated at 37° C. for 10 minutes. Thereto was added a substrate solution (for final preparation; 2 nM [^3H]-Anandamide (American Radiolabeled Chemicals Inc.)+2 μM Anandamide (Sigma-Aldrich Co.)) (final assay volume of 200 μL) and the resulting mixtures were incubated at 37° C. for 10 minutes. Here in control experiment, DMSO was added instead of the solution of test substance in DMSO. Also in blank experiment, DMSO was added instead of the solution of test substance in DMSO and an enzyme solution preparation buffer was also added instead of the membrane preparations. After the incubation, thereto was added a 400 μL ice-cooled solution of chloroform and methanol (1:1 ratio by volume) and the resulting mixtures were stirred. An ethanolamine (ethanolamine-1-[^3H]) as a decomposed product was separated into an upper layer (water/methanol layer) by centrifugation (1,000×g for 10 minutes). The upper layer 200 μL was transferred into 96 well Deepwell Luma Plate-96 (PerkinElmer Inc.) and the radioactivity was measured by microplate scintillation counter (TopCount NXT™: […].). The substances showing a lower measured value compared to those of control were selected as the compound having a FAAH inhibitory activity.
(3) Determination of IC50 Value
The test substances were prepared such that the final concentration of the compounds is within the range of 0.1 nM to 1 μM and were then examined on the effect on FAAH activity according to the above-mentioned protocol.

Where [1] appears, read: rat brain membrane preparations, 100 nM test substance.
Setting [2] is: rat brain membrane preparations, read-out: FAAH Inhibition IC50.

The structures appear in SMILES notation. Like-named read-outs stand apart in the source and are kept apart here.

In the case of `CCN(CC)C(=O)n1c(=O)n(C)c2nc(-c3cccc(OC)c3)ncc21` [Example 70], the inhibition at 0.1 µM under setting [1] worked out at 41%. Moreover, the IC50 under setting [2] is over 0.1 µM.
`COc1cccc(-c2ncc3c(n2)n(C)c(=O)n3C(=O)N(C)Cc2ccc(F)cc2)c1` [Example 71, N-(4-Fluorobenzyl)-2-(3-methoxyphenyl)-N,9-dimethyl-8-oxo-8,9-dihydro-7H-purine-7-carboxamide]: the inhibition at 0.1 µM under setting [1] was 103%. Besides, under setting [2], the IC50 was found to be 0.009 µM.
In the case of `COc1cccc(-c2ncc3c(n2)n(C)c(=O)n3C(=O)N(C)Cc2cccc(F)c2)c1` [Example 72, N-(3-Fluorobenzyl)-2-(3-methoxyphenyl)-N,9-dimethyl-8-oxo-8,9-dihydro-7H-purine-7-carboxamide], the inhibition at 0.1 µM under setting [1] is 99%. Also, the IC50 under setting [2] amounted to 0.023 µM.
For `COc1cccc(CN(C)C(=O)n2c(=O)n(C)c3nc(-c4cccc(OC)c4)ncc32)c1` [Example 73, N-(3-Methoxybenzyl)-2-(3-methoxyphenyl)-N,9-dimethyl-8-oxo-8,9-dihydro-7H-purine-7-carboxamide], in that order: 89% and 0.045 µM.
For the molecule `COc1cccc(-c2ncc3c(n2)n(C)c(=O)n3C(=O)N(C)CCc2ccc(F)cc2)c1` [Example 74, N-[2-(4-Fluorophenyl)ethyl]-2-(3-methoxyphenyl)-N,9-dimethyl-8-oxo-8,9-dihydro-7H-purine-7-carboxamide], the inhibition at 0.1 µM stood at 104%. Moreover, the IC50 under setting [2] was under 0.001 µM.
For `COc1cccc(-c2ncc3c(n2)n(C)c(=O)n3C(=O)N(C)CCc2cccc(F)c2)c1` [Example 75, N-[2-(3-Fluorophenyl)ethyl]-2-(3-methoxyphenyl)-N,9-dimethyl-8-oxo-8,9-dihydro-7H-purine-7-carboxamide], in that order: 103% and under 0.001 µM.
`COc1cccc(-c2ncc3c(n2)n(C)c(=O)n3C(=O)N(C)CCc2cccc(Cl)c2)c1` [Example 76, N-[2-(3-Chlorophenyl)ethyl]-2-(3-methoxyphenyl)-N,9-dimethyl-8-oxo-8,9-dihydro-7H-purine-7-carboxamide]: the inhibition at 0.1 µM was determined as 102%. This molecule also registered an IC50 (FAAH Inhibition IC50, rat brain membrane preparations) of 0.003 µM.
For the molecule `COc1cccc(-c2ncc3c(n2)n(C)c(=O)n3C(=O)N(C)CCOc2ccc(Cl)cc2)c1` [Example 77, N-[2-(4-Chlorophenoxy)ethyl]-2-(3-methoxyphenyl)-N,9-dimethyl-8-oxo-8,9-dihydro-7H-purine-7-carboxamide], the inhibition at 0.1 µM under setting [1] is 116%. Besides, the IC50 under setting [2] is 0.003 µM.
With `COc1cccc(-c2ncc3c(n2)n(C)c(=O)n3C(=O)N(C)Cc2ccc(Cl)cc2)c1` [Example 78, N-(4-Chlorobenzyl)-2-(3-methoxyphenyl)-N,9-dimethyl-8-oxo-8,9-dihydro-7H-purine-7-carboxamide], the inhibition at 0.1 µM under setting [1] was found to be 108%. Besides, the IC50 under setting [2] was determined as 0.01 µM.
Consider `COc1cccc(-c2ncc3c(n2)n(C)c(=O)n3C(=O)N(C)Cc2cccc(Cl)c2)c1` [Example 79, N-(3-Chlorobenzyl)-2-(3-methoxyphenyl)-N,9-dimethyl-8-oxo-8,9-dihydro-7H-purine-7-carboxamide], for which the inhibition at 0.1 µM under setting [1] amounted to 87%. In addition, under setting [2], the IC50 was determined as 0.051 µM.
With `COc1ccc(CN(C)C(=O)n2c(=O)n(C)c3nc(-c4cccc(OC)c4)ncc32)cc1` [Example 80, N-(4-Methoxybenzyl)-2-(3-methoxyphenyl)-N,9-dimethyl-8-oxo-8,9-dihydro-7H-purine-7-carboxamide], the inhibition at 0.1 µM under setting [1] was 92%. Moreover, the IC50 under setting [2] stood at 0.044 µM.
In the case of `COc1cccc(-c2ncc3c(n2)n(C)c(=O)n3C(=O)N(C)Cc2ccc(C(F)(F)F)cc2)c1` [Example 81, 2-(3-Methoxyphenyl)-N,9-dimethyl-8-oxo-N-[4-(trifluoromethyl)benzyl]-8,9-dihydro-7H-purine-7-carboxamide], the inhibition at 0.1 µM under setting [1] amounted to 94%. The IC50 under setting [2] came out at 0.011 µM.
On to `COc1cccc(-c2ncc3c(n2)n(C)c(=O)n3C(=O)N(C)Cc2cccc(C(F)(F)F)c2)c1` [Example 82, 2-(3-Methoxyphenyl)-N,9-dimethyl-8-oxo-N-[3-(trifluoromethyl)benzyl]-8,9-dihydro-7H-purine-7-carboxamide], for which, under setting [1], the inhibition at 0.1 µM was 90%. Further, the IC50 under setting [2] came to 0.036 µM.
The like results for `COc1cccc(-c2ncc3c(n2)n(C)c(=O)n3C(=O)N(C)Cc2ccc(OC(F)(F)F)cc2)c1` [Example 83, 2-(3-Methoxyphenyl)-N,9-dimethyl-8-oxo-N-[4-(trifluoromethoxy)benzyl]-8,9-dihydro-7H-purine-7-carboxamide] were, in that order, 93% and 0.025 µM.
As for `COc1cccc(-c2ncc3c(n2)n(C)c(=O)n3C(=O)N2CCN(Cc3ccc(F)cc3)CC2)c1` [Example 84, 7-{[4-(4-Fluorobenzyl)piperazin-1-yl]carbonyl}-2-(3-methoxyphenyl)-9-methyl-7,9-dihydro-8H-purine-8-one], the inhibition at 0.1 µM stood at 98%. The IC50 under setting [2] came out at 0.013 µM.
Consider `COc1cccc(-c2ncc3c(n2)n(C)c(=O)n3C(=O)N2CCN(Cc3cccc(F)c3)CC2)c1` [Example 85, 7-{[4-(3-Fluorobenzyl)piperazin-1-yl]carbonyl}-2-(3-methoxyphenyl)-9-methyl-7,9-dihydro-8H-purine-8-one], for which the inhibition at 0.1 µM was determined as 93%. Under setting [2], the IC50 stood at 0.031 µM.
The like results for `COc1cccc(-c2ncc3c(n2)n(C)c(=O)n3C(=O)N2CCN(Cc3ccc(Cl)cc3)CC2)c1` [Example 86, 7-{[4-(4-Chlorobenzyl)piperazin-1-yl]carbonyl}-2-(3-methoxyphenyl)-9-methyl-7,9-dihydro-8H-purine-8-one] were, in that order, 96% and 0.022 µM.
Consider `COc1cccc(-c2ncc3c(n2)n(C)c(=O)n3C(=O)N2CCN(Cc3cccc(Cl)c3)CC2)c1` [Example 87, 7-{[4-(3-Chlorobenzyl)piperazin-1-yl]carbonyl}-2-(3-methoxyphenyl)-9-methyl-7,9-dihydro-8H-purine-8-one], for which the inhibition at 0.1 µM was 99%. In addition, under setting [2], the concentration for half-maximal inhibition (IC50) was 0.01 µM.
`COc1cccc(-c2ncc3c(n2)n(C)c(=O)n3C(=O)N(C)Cc2ccccc2)c1` [Example 88, N-Benzyl-2-(3-methoxyphenyl)-N,9-dimethyl-8-oxo-8,9-dihydro-7H-purine-7-carboxamide]: the inhibition at 0.1 µM under setting [1] came out at 93%. Also, the IC50 under setting [2] amounted to 0.043 µM.
For `COc1cccc(-c2ncc3c(n2)n(C)c(=O)n3C(=O)N2CCN(Cc3ccc(C(F)(F)F)cc3)CC2)c1` [Example 89, 2-(3-Methoxyphenyl)-9-methyl-7-({4-[4-(trifluoromethyl)benzyl]piperazin-1-yl}carbonyl)-7,9-dihydro-8H-purine-8-one], the inhibition at 0.1 µM is 92%. For the same molecule, the IC50 under setting [2] was found to be 0.044 µM.
As for `COc1cccc(-c2ncc3c(n2)n(C)c(=O)n3C(=O)N(C)CCOc2cccc(Cl)c2)c1` [Example 90, N-[2-(3-Chlorophenoxy)ethyl]-2-(3-methoxyphenyl)-N,9-dimethyl-8-oxo-8,9-dihydro-7H-purine-7-carboxamide], the inhibition at 0.1 µM under setting [1] is 105%. The IC50 under setting [2] was 0.002 µM.
